According to patent US10040781B2, “Tank-binding kinase inhibitor compounds” (Gilead Sciences, Inc., priority 2014, dated 2018):

Legend:
hJAK2 = hJAK2 (Homo sapiens (Human), UniProt O60674); assay: hJAK2 LANCE TR-FRET enzymatic assay; format: biochemical; settings: read-out: JAK2 IC50
TBK1 = TBK1 (Homo sapiens (Human), UniProt Q9UHD2); assay: TBK1 TR-FRET enzymatic assay;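 also: phosphorylation of a biotinylated Ser/Thr peptide by purified full-length recombinant TBK1, read by TR-FRET after 240 min at 25 °C, IC50 is the geometric mean of at least four runs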
TBK1, sequence (Q9UHD2 whole entry): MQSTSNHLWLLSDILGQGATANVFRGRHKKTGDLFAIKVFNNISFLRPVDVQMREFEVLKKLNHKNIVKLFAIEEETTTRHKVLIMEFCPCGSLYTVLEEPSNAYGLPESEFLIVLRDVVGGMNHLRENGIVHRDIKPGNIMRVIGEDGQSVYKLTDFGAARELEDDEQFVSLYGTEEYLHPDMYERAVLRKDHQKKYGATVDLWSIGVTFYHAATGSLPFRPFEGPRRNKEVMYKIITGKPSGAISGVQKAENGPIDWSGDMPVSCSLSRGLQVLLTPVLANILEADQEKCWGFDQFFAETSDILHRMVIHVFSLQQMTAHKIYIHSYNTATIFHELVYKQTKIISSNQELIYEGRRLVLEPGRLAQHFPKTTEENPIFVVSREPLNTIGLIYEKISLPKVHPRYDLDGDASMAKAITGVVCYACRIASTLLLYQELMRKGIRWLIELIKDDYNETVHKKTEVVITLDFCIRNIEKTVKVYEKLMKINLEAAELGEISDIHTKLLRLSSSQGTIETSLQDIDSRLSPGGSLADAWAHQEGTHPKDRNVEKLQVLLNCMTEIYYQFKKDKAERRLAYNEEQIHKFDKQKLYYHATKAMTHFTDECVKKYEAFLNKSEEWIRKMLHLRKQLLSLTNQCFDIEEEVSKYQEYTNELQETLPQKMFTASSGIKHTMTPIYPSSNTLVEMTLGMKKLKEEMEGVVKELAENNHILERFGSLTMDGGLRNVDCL

IKKε = IKKε (Homo sapiens (Human), UniProt Q14164); assay: IKKε TR-FRET enzymatic assay; format: biochemical; settings: TR-FRET, 2×Km ATP; geometric mean of minimum four determinations; read-out: IKKe IC50
IKKε, sequence (Q14164 whole entry): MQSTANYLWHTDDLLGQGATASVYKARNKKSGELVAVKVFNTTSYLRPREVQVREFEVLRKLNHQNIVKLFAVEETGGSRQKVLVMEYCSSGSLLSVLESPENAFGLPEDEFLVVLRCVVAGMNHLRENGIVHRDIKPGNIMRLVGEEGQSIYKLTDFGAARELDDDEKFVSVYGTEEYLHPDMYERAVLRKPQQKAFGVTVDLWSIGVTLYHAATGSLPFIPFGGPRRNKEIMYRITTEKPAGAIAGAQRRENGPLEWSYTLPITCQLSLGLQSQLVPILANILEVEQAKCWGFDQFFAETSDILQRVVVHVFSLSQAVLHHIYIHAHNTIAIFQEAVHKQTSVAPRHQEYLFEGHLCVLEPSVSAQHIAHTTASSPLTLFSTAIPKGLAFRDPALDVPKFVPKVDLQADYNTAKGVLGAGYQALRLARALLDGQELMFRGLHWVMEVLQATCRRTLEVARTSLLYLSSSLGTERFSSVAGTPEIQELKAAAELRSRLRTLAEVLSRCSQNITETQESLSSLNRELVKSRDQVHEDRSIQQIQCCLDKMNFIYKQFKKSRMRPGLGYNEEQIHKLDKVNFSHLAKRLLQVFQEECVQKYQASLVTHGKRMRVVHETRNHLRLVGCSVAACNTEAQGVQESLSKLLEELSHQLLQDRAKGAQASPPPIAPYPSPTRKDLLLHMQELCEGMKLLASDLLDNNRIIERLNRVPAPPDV

hJAK2, sequence (O60674 whole entry): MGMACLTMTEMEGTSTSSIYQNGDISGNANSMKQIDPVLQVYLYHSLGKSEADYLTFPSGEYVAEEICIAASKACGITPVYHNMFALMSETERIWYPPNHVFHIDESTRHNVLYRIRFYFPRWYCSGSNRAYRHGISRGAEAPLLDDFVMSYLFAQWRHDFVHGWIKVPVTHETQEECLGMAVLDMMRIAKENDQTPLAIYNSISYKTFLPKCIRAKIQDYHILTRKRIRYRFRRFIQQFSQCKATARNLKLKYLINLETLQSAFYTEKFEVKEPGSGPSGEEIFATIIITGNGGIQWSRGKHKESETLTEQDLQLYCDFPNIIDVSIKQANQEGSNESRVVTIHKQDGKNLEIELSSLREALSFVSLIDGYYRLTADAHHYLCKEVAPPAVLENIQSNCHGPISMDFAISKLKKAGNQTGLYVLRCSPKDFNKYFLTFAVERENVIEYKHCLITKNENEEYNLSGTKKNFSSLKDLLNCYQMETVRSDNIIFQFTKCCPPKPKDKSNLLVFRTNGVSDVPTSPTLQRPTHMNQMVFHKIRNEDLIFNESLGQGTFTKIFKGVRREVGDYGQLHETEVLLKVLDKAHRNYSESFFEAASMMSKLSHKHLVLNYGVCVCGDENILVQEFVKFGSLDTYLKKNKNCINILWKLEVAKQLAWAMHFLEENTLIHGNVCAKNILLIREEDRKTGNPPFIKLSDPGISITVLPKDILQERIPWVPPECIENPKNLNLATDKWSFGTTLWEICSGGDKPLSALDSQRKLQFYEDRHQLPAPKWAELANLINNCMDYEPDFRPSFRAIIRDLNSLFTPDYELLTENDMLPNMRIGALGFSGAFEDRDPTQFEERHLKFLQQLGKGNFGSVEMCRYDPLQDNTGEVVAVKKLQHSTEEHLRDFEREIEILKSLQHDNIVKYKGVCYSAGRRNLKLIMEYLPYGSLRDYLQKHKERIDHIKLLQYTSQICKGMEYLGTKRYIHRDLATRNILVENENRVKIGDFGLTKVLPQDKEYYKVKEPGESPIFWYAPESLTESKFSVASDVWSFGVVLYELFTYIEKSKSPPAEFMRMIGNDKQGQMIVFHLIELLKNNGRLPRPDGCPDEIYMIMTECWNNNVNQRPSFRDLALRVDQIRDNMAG

Structure (SMILES)	IC50 (hJAK2)	IC50 (TBK1)	IC50 (IKKε)
N#Cc1cc(-c2ncnc(Nc3ccc(C4CCN(C5COC5)CC4)cc3)n2)ccc1O[C@H]1CCN(C(=O)[C@@H](O)CO)C[C@H]1F [Example 509, 2-(((3R,4S)-1-((S)-2,3-dihydroxypropanoyl)-3-fluoropiperidin-4-yl)oxy)-5-(4-((4-(1-(oxetan-3-yl)piperidin-4-yl)phenyl)amino)-1,3,5-triazin-2-yl)benzonitrile]	699 nM	3 nM	1 nM
N#Cc1cc(-c2ncnc(Nc3ccc(N4CCN(C5COC5)CC4)nc3)n2)ccc1O[C@H]1CCN(C(=O)[C@@H](O)CO)C[C@H]1F [Example 510, 2-(((3R,4S)-1-((S)-2,3-dihydroxypropanoyl)-3-fluoropiperidin-4-yl)oxy)-5-(4-((6-(4-(oxetan-3-yl)piperazin-1-yl)pyridin-3-yl)amino)-1,3,5-triazin-2-yl)benzonitrile]	≥ 1000 nM	4 nM	2 nM
COc1cc(Nc2ncnc(-c3ccc(O[C@H]4CCN(C(=O)[C@@H](O)CO)C[C@H]4F)c(C#N)c3)n2)cnc1N1CCN(C2COC2)CC1 [Example 511, 2-(((3R,4S)-1-((S)-2,3-dihydroxypropanoyl)-3-fluoropiperidin-4-yl)oxy)-5-(4-((5-methoxy-6-(4-(oxetan-3-yl)piperazin-1-yl)pyridin-3-yl)amino)-1,3,5-triazin-2-yl)benzonitrile]	≥ 1000 nM	4 nM	2 nM
CC(C)(O)Cn1cc(Nc2ncnc(-c3ccc(O[C@H]4CCN(C(=O)[C@@H](O)CO)C[C@H]4F)c(C#N)c3)n2)cn1 [Example 512, 2-(((3R,4S)-1-((S)-2,3-dihydroxypropanoyl)-3-fluoropiperidin-4-yl)oxy)-5-(4-((1-(2-hydroxy-2-methylpropyl)-1H-pyrazol-4-yl)amino)-1,3,5-triazin-2-yl)benzonitrile]	≥ 1000 nM	2 nM	2 nM
C[C@H](O)C(=O)N1CC[C@H](Oc2ccc(-c3ncnc(Nc4cnc5c(c4)OCCN5)n3)cc2C#N)[C@H](F)C1 [Example 516, 5-(4-((3,4-dihydro-2H-pyrido[3,2-b][1,4]oxazin-7-yl)amino)-1,3,5-triazin-2-yl)-2-(((3R,4S)-3-fluoro-1-((S)-2-hydroxypropanoyl)piperidin-4-yl)oxy)benzonitrile]	≥ 1000 nM	6 nM	10 nM

Stronger by IC50 (hJAK2), values ahead:

IC50 (hJAK2)	IC50 (TBK1)	IC50 (IKKε)	Structure (SMILES)
601 nM	3 nM	3 nM	N#Cc1cc(-c2ncnc(Nc3cnn(CCO)c3)n2)ccc1O[C@H]1CCN(C(=O)CO)C[C@H]1F [Example 506, 2-(((3R,4S)-3-fluoro-1-(2-hydroxyacetyl)piperidin-4-yl)oxy)-5-(4-((1-(2-hydroxyethyl)-1H-pyrazol-4-yl)amino)-1,3,5-triazin-2-yl)benzonitrile]
532 nM	12 nM	41 nM	N#Cc1cc(-c2ncnc(Nc3ccc(N4CCN(C5COC5)CC4)cc3)n2)ccc1O[C@H]1CCN(C(=O)[C@H]2CCCO2)C[C@H]1F [Example 505, 2-(((3R,4S)-3-fluoro-1-((R)-tetrahydrofuran-2-carbonyl)piperidin-4-yl)oxy)-5-(4-((4-(4-(oxetan-3-yl)piperazin-1-yl)phenyl)amino)-1,3,5-triazin-2-yl)benzonitrile]
517 nM	2 nM	1 nM	Cc1cc(Nc2ncnc(-c3ccc(O[C@H]4CCN(C(=O)[C@@H](O)CO)C[C@H]4F)c(C#N)c3)n2)cnc1N1CCN(C2COC2)CC1 [Example 513, 2-(((3R,4S)-1-((S)-2,3-dihydroxypropanoyl)-3-fluoropiperidin-4-yl)oxy)-5-(4-((5-methyl-6-(4-(oxetan-3-yl)piperazin-1-yl)pyridin-3-yl)amino)-1,3,5-triazin-2-yl)benzonitrile]
432 nM	3 nM	2 nM	N#Cc1cc(-c2ncnc(Nc3cn[nH]c3)n2)ccc1O[C@H]1CCN(C(=O)CO)C[C@H]1F [Example 507, 5-(4-((1H-pyrazol-4-yl)amino)-1,3,5-triazin-2-yl)-2-(((3R,4S)-3-fluoro-1-(2-hydroxyacetyl)piperidin-4-yl)oxy)benzonitrile]
